Reference: patent US11447550B2, “Peptides for molecular detection of PD-L1” (THE CURATORS OF THE UNIVERSITY OF MISSOURI, priority 2016, dated 2022)
Ends that are not written are not given here. * marks the point of attachment. Biotin = O=C1N[C@H]2[C@H](CS[C@H]2CCCCC(=O)*)N1

Columns and labels:
[1] = molecular target: T1, PD-L1 (Homo sapiens, UniProt Q9NZQ7); test: Immunohistochemistry using biotinylated peptide on FFPE tissues; type: binding; design: Seven PD-L1 expressing NSCLC patient tissues were obtained from the MU OneHealth tissue bank; tissue MU OneHealth tissue bank; U.S. Biomax (TMA) LC1923; host or cells: FFPE placenta, seven NSCLC patient tissues, 192-case lung cancer tissue microarray, four Hodgkin's lymphoma cases; details: for staining of placental trophoblasts: FFPE placenta tissue (positive control), FIG. 8
T1 sequence (Q9NZQ7 19-290): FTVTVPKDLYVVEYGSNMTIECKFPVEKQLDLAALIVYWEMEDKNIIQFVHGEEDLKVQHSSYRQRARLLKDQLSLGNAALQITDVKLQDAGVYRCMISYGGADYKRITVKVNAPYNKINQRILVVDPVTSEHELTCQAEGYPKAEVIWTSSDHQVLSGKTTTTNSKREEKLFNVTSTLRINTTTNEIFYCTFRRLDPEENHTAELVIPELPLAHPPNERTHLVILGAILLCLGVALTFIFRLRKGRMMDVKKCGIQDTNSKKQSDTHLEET
Description: To detect PD-L1 in FFPE tissues, manual IHC techniques were employed with a biotin-conjugated version of peptide RK-10-Cy5 and compared with Ventana PD-L1 (SP263) Rabbit monoclonal Primary Antibody stained on a Roche Benchmark Ultra autostainer. Seven PD-L1 expressing NSCLC patient tissues were obtained from the MU OneHealth tissue bank and de-identified according to IRB protocols. Paraffin-embedded patient tissue slides were baked overnight, then de-waxed and rehydrated according to standard protocols. Tissue sections were then subjected to antigen retrieval in EDTA at 95° C. for 20 minutes in EDTA […]. The solution is then cooled for an additional 20 minutes on the bench top prior to buffer rinse. Tissues were then incubated with […] for 2 hours in a humid chamber at RT. After 2 hours, slides were washed with buffer and treated with PIERCE™ High Sensitivity Streptavidin-HRP (1:200 dilution) (Sigma) for 30 minutes at RT in a humid chamber. Once this was complete, slides were again washed in buffer then treated with DAB (3,3′-Diaminobenzidine; Sigma) for 10 minutes. Slides were again washed in buffer, then dehydrated using graded alcohol and xylene and counterstained with hematoxylin. Slides were then imaged using bright-field microscopy on a Leica DM5500.
Seven Patient NSCLC tissues were investigated for PD-L1 using either manual IHC with 15 μM RK-10-Biotin peptide, or the Ventana PD-L1 (SP263) rabbit monoclonal primary antibody stained on a Roche Benchmark Ultra. In this study the peptide was conjugated with biotin, which was used to bind a secondary treatment of streptavidin-HRP. Formalin-Fixed, Paraffin Embedded (FFPE) placenta tissue was used as the positive control, since PD-L1 is expressed in placental trophoblasts (Veras, E., Kurman, R. J., Wang, T.-L. & Shih, I.-M. International Journal of Gynecological Pathology Publish Ahead of Print). This study also utilized biotinylated mock peptide RK-11-Biotin as a negative control. This mock peptide was synthesized to have very low affinity to PD-L1. Both the PD-L1 peptide and Ventana clone SP263 stained the trophoblasts heavily in the placental tissue (FIG. 8). […] Blocking of the Ventana antibody was achieved by first treating the placenta tissue with RK-10-Biotin for 30 minutes, washing, and treating on the Roche autostainer according to specifications. […] As a negative control, normal lung, breast, and colorectal tissues were stained using RK-10 and SP263.
Once confidence in PD-L1 staining was established in repeated placenta tissues, staining in seven NSCLC patient tissues (patients ‘A’ through ‘G’) was compared with the Ventana SP263 antibody and RK-10-Biotin (FIG. 9). […]

[2] = molecular target: T1, PD-L1; test: IHC blocking using PD-L1 peptide or Ventana antibody SP263; type: binding; design: Seven PD-L1 expressing NSCLC patient tissues were obtained from the MU OneHealth tissue bank; tissue MU OneHealth tissue bank; U.S. Biomax (TMA) LC1923; host or cells: FFPE placenta, seven NSCLC patient tissues, 192-case lung cancer tissue microarray, four Hodgkin's lymphoma cases; details: placenta tissue treated with RK-10-Biotin for 30 minutes, then Ventana SP263 on Roche autostainer, FIG. 8 panel c
Procedure: To test specificity of the PD-L1 peptide, PD-L1 receptors were first blocked on the tissue with RK-10 peptide for 1 hour prior to autostaining the tissue with SP263 antibody using the Roche autostainer with the Ventana PD-L1 kit according to Roche's specifications. Blocking of the RK-10 peptide using the SP263 antibody was also investigated by first treating the tissue with SP263 antibody for 30 minutes prior to treating the tissue with peptide according to the previously mentioned protocol.
Seven Patient NSCLC tissues were investigated for PD-L1 using either manual IHC with 15 μM RK-10-Biotin peptide, or the Ventana PD-L1 (SP263) rabbit monoclonal primary antibody stained on a Roche Benchmark Ultra. In this study the peptide was conjugated with biotin, which was used to bind a secondary treatment of streptavidin-HRP. Formalin-Fixed, Paraffin Embedded (FFPE) placenta tissue was used as the positive control, since PD-L1 is expressed in placental trophoblasts (Veras, E., Kurman, R. J., Wang, T.-L. & Shih, I.-M. International Journal of Gynecological Pathology Publish Ahead of Print). This study also utilized biotinylated mock peptide RK-11-Biotin as a negative control. This mock peptide was synthesized to have very low affinity to PD-L1. Both the PD-L1 peptide and Ventana clone SP263 stained the trophoblasts heavily in the placental tissue (FIG. 8). […]

| Substance | staining of placental trophoblasts [1] | tumor staining in NSCLC patient tissues ([1]; seven NSCLC patient tissues A-G, 15 μM peptide, FIG. 9) | SP263 staining after pre-blocking with peptide [2] | staining of normal tissues ([1]; normal lung, breast and colorectal tissues (negative control)) |
| --- | --- | --- | --- | --- |
| Biotin-GSGSGSFVLNWYRMSPSNQTDKLAA [RK-11-Biotin] | light staining at high concentrations |  |  |  |
| Biotin-GSGSGSTYLCGAISLAPKAQIKESL [RK-10-Biotin] | heavy membrane staining of the trophoblast cells | heaviest staining was observed localized to the tumor regions of the tissues | drastic reduction of staining |  |
| GSGSGSTYLCGAISLAPKAQIKESL [RK-10] |  |  |  | negative for PD-L1 expression |
